From patent US20240002899A1 (priority 2022, published 2024)
Like-named read-outs stand apart in the source and are kept apart here.

Tested on: VSV (ATCC VR-1238)
Format: cell-based, vesicular stomatitis virus

Cc1cc2nc3c(=O)[nH]c(=O)nc-3n(C[C@H](O)[C@H](O)[C@H](O)CO)c2cc1C [riboflavin]
MVEPI of VSV in plasma (intermediate-acting RUV: 311 nm, irradiation dose 6.49 J/mL): 4.04 | MVEPI of VSV in plasma (weak-acting (low-acting) RUV: 365 nm, irradiation dose 12.56 J/mL): 1.77
